Assay results: PubChem BioAssay AID1918954 (Molecular Pharmacology Branch, DTP, NCI, 2023)
Several values for one entry are separate records, joined by “and”; a condition that tells them apart may be missing. Equal values may be shown once.

Test system: MDA-MB-468 complex spheroids with HUVEC/MSC, viability
Test: Anticancer human tumor MDA-MB-468 cell line growth inhibition;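 note: spheroids exposed to agents for seven days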;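 for viability, T/C: 100% = DMSO vehicle control viability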
Conditions: for viability, T/C: stronger effect = lower value
Procedure, shortened: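 Multicellular complex spheroids of tumor cells with human endothelial cells (HUVEC) and mesenchymal stem cells; the LSD1 inhibitor iadademstat was combined with standard-of-care or investigational agents. Top concentration at or near clinical Cmax, half-log dilutions; final DMSO ≤0.25%.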

## CC1(C)CCC(CN2CCN(c3ccc(C(=O)NS(=O)(=O)c4ccc(NCC5CCOCC5)c([N+](=O)[O-])c4)c(Oc4cnc5[nH]ccc5c4)c3)CC2)=C(c2ccc(Cl)cc2)C1
Compound 0.0316 µM
  viability, T/C: 93.2% and 90.6%
Compound 0.1 µM
  viability, T/C: 102% and 95.5%
Compound 0.316 µM
  viability, T/C: 101% and 85.6%
Compound 1 µM
  viability, T/C: 91.7% and 74%
Compound 3.16 µM
  viability, T/C: 70.5% and 30.9%
Curve of compound
  IC50: 6600 nM and 1880 nM

## Cn1ncnc1C1c2n[nH]c(=O)c3cc(F)cc(c23)NC1c1ccc(F)cc1 (stereo not drawn) + NC1CCC(NC2CC2c2ccccc2)CC1
Curve of first compound, second compound 0.1 µM
  IC50: 90.3 nM
Curve of first compound, second compound 0.316 µM
  IC50: > 100 nM
Curve of first compound, second compound 1 µM
  IC50: > 100 nM
Curve of first compound, second compound 3.16 µM
  IC50: > 100 nM
Curve of first compound, second compound 10 µM
  IC50: 24 nM
Second compound 0.1 µM, first compound 0.000316 µM
  viability, T/C: 74.5%
Second compound 0.1 µM, first compound 0.001 µM
  viability, T/C: 81.9%
Second compound 0.1 µM, first compound 0.00316 µM
  viability, T/C: 81.3%
Second compound 0.1 µM, first compound 0.01 µM
  viability, T/C: 71.8%
Second compound 0.1 µM, first compound 0.0316 µM
  viability, T/C: 70.8%
Second compound 0.1 µM, first compound 0.1 µM
  viability, T/C: 47.8%
Second compound 0.316 µM, first compound 0.000316 µM
  viability, T/C: 94.9%
Second compound 0.316 µM, first compound 0.001 µM
  viability, T/C: 84.6%
Second compound 0.316 µM, first compound 0.00316 µM
  viability, T/C: 91.5%
Second compound 0.316 µM, first compound 0.01 µM
  viability, T/C: 76.9%
Second compound 0.316 µM, first compound 0.0316 µM
  viability, T/C: 70.8%
Second compound 0.316 µM, first compound 0.1 µM
  viability, T/C: 49.5%
Second compound 1 µM, first compound 0.000316 µM
  viability, T/C: 65.5%
Second compound 1 µM, first compound 0.001 µM
  viability, T/C: 85%
Second compound 1 µM, first compound 0.00316 µM
  viability, T/C: 80.4%
Second compound 1 µM, first compound 0.01 µM
  viability, T/C: 65.7%
Second compound 1 µM, first compound 0.0316 µM
  viability, T/C: 60.4%
Second compound 1 µM, first compound 0.1 µM
  viability, T/C: 50.3%
Second compound 3.16 µM, first compound 0.000316 µM
  viability, T/C: 80.6%
Second compound 3.16 µM, first compound 0.001 µM
  viability, T/C: 86.9%
Second compound 3.16 µM, first compound 0.00316 µM
  viability, T/C: 72.7%
Second compound 3.16 µM, first compound 0.01 µM
  viability, T/C: 62.7%
Second compound 3.16 µM, first compound 0.0316 µM
  viability, T/C: 60.3%
Second compound 3.16 µM, first compound 0.1 µM
  viability, T/C: 54.7%
Second compound 10 µM, first compound 0.000316 µM
  viability, T/C: 67.5%
Second compound 10 µM, first compound 0.001 µM
  viability, T/C: 57%
Second compound 10 µM, first compound 0.00316 µM
  viability, T/C: 62.4%
Second compound 10 µM, first compound 0.01 µM
  viability, T/C: 56.4%
Second compound 10 µM, first compound 0.0316 µM
  viability, T/C: 46.7%
Second compound 10 µM, first compound 0.1 µM
  viability, T/C: 40.3%

## Cn1ncnc1C1c2n[nH]c(=O)c3cc(F)cc(c23)NC1c1ccc(F)cc1 (stereo not drawn)
Compound 0.000316 µM
  viability, T/C: 103% and 96.9%
Compound 0.001 µM
  viability, T/C: 86.7% and 79.6%
Compound 0.00316 µM
  viability, T/C: 77.2% and 65.3%
Compound 0.01 µM
  viability, T/C: 72% and 75%
Compound 0.0316 µM
  viability, T/C: 61.2% and 64.5%
Compound 0.1 µM
  viability, T/C: 60.7% and 50.9%
Curve of compound
  IC50: > 100 nM
